From ChEMBL document CHEMBL5614444, “Advancements in Targeted Therapeutics: Integrating Metabolic Modulation, Immune Engineering, and Biologic Formulation Technologies” (ACS Med Chem Lett, 2024) come the findings set out here.

Active and inactive are the calls of the source. The calls are words filed in the database; no cut-off is given here.

Test [1] addresses T1, Peroxisome proliferator-activated receptor gamma (Homo sapiens) (UniProt P37231).
T1 sequence (whole entry): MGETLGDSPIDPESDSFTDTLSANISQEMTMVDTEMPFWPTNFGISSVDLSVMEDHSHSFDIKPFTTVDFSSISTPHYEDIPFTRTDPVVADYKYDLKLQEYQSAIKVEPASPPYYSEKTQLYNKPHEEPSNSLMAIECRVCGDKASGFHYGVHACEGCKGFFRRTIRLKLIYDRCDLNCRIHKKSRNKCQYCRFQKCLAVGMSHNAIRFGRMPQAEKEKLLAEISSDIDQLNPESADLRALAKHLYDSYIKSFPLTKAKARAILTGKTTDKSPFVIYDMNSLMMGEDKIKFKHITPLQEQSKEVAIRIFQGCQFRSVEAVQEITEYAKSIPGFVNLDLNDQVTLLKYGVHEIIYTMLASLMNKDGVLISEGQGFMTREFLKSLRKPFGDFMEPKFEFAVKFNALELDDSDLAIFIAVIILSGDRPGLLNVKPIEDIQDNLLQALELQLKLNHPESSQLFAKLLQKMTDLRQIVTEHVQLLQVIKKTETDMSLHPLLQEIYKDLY
Nature of the test: (§1) Antagonist activity at PPARgamma (unknown origin). The note with it: filed as antagonist.

The target in test [2] is T2, Peroxisome proliferator-activated receptor gamma (Homo sapiens, UniProt P37231).
T2 sequence (P37231 whole entry): T1 sequence (whole entry)
The test is described as §1.

Test [3] has as its target T1, Peroxisome proliferator-activated receptor gamma (Homo sapiens). The test is described as follows: Inhibition of PPARgamma (unknown origin).

Consider `Cc1cc([N+](=O)[O-])ccc1NS(=O)(=O)c1cc(Cl)ccc1Cl`, for which, in test [1], the result was Active.

Take `COP(=O)(OC)OC(c1ccc(Cl)cc1)P(=O)(OC)OC` (centres undefined): in test [1], the outcome was Active.

As for `O=C(Nc1ccccc1)c1cc([N+](=O)[O-])ccc1Cl`, in test [2], the midpoint of inhibition, the IC50, lay at 3.3 nM.

Consider `COc1ccc2nccc(NC(=O)c3cc([N+](=O)[O-])ccc3Cl)c2c1`, for which, in test [3], the inhibition result was “Active”.
